From paper PMC11335189, “Revealing molecular determinants governing mambalgin-3 pharmacology at acid-sensing ion channel 1 variants” (Cellular and Molecular Life Sciences: CMLS, 2024)
Positions of bridges follow the written chain, without caps; N, C: chain ends. No end group written: not given here.

Tests used:
[1] = molecular target: T1, hASIC1a (Homo sapiens, UniProt P78348); assay: TEVC in Xenopus laevis oocytes expressing hASIC1a; format: cell-based; settings: for loss of potency relative to wild-type Ma-3: conditioning pH 7.45, stimulating pH 6
T1 construct: expressed in transfected cells; host or cells: Xenopus laevis oocytes (cRNA injection)
T1 sequence (P78348 1-528): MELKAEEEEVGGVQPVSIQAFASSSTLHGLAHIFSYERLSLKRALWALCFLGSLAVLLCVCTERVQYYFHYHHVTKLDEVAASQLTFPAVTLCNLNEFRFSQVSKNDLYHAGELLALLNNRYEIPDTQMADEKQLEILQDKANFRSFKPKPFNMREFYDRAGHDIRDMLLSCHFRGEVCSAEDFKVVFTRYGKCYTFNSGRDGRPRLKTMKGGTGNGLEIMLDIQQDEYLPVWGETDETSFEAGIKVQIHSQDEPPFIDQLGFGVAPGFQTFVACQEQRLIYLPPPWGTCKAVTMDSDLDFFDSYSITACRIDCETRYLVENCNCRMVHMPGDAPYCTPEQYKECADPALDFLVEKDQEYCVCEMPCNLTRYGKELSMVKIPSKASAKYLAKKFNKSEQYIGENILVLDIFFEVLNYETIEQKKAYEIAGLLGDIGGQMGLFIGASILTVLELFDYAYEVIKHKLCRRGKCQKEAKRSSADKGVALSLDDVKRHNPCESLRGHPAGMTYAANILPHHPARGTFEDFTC
Experimental: Two-electrode voltage-clamp (TEVC) experiments using Xenopus laevis oocytes were conducted as previously described. Briefly, oocytes were surgically removed from anaesthetised female frogs, then treated with collagenase (~ 1 mg/ml, Sigma type I) for 2 h under agitation at room temperature. cRNAs were synthesised using a mMessage mMachine T7 or SP6 transcription kit (Thermo Fisher Scientific Australia Pty Ltd, Scoresby, VIC, Australia) and injected into healthy stage V–VI oocytes at 0.2–20 ng per cell. Different amounts of RNA were used for different wild-type and mutant constructs, as well as to titrate expression levels to record over multiple days and maintaining consistent expression levels. Injected oocytes were incubated at 17 °C for 1–7 days in 50% Leibovitz’s L-15 medium (Gibco, Thermo Fisher Scientific Australia Pty Ltd, Scoresby, VIC, Australia), supplemented with 25 µg/mL gentamicin, 25 µg/mL streptomycin, and 2.5% fetal horse serum. Membrane currents were recorded 2–7 days after cRNA-injection under voltage-clamp at -60 mV (Axon Axoclamp 900 A, Molecular Devices, CA, USA) using two standard glass microelectrodes of 0.5–1 MΩ resistance when filled with 3 M KCl solution. Data were sampled at 2 kHz and filtered at 0.1 kHz using Clampex 10 software (Molecular Devices, CA, USA). […]
(§1) Specific to this work, the standard protocol was for oocytes to be conditioned at pH 7.45 and channels stimulated every 60 s using a 5 s pH 5 or 6 application, unless stated otherwise. […] Activation curves were determined by conditioning oocytes at pH 8 (Fig. 2e − g; and Fig. 5a and b) or 7.45 (Fig. 6; and Supplementary Fig. 2d and c) for 55 s and applying low pH stimuli from 7.25 to 5.0 for 5 s. Steady-state desensitisation (SSD) was determined by applying conditioning solutions of pH values from 8 to 6 for 115 s prior to stimulation by a pH drop to 5 for 5 s. […] Control pH-dependence curves were determined in the absence of any Ma-3. […]
Data were analysed using pCLAMP-Clampfit software (Version 11, Molecular Devices, CA, USA) and GraphPad Prism 9.5 and 10.2.2 (GraphPad Software, San Diego, CA, USA). […]

[2] = tested on: rASIC1a: rASIC1b chimera C166; assay: TEVC oocytes, rASIC1a: rASIC1b chimera C166; format: cell-based, rat; settings: conditioning pH 7.45, stimulating pH 5
Experimental: (§2) Two-electrode voltage-clamp (TEVC) experiments using Xenopus laevis oocytes were conducted as previously described. Briefly, oocytes were surgically removed from anaesthetised female frogs, then treated with collagenase (~ 1 mg/ml, Sigma type I) for 2 h under agitation at room temperature. cRNAs were synthesised using a mMessage mMachine T7 or SP6 transcription kit (Thermo Fisher Scientific Australia Pty Ltd, Scoresby, VIC, Australia) and injected into healthy stage V–VI oocytes at 0.2–20 ng per cell. […] Membrane currents were recorded 2–7 days after cRNA-injection under voltage-clamp at -60 mV (Axon Axoclamp 900 A, Molecular Devices, CA, USA) using two standard glass microelectrodes of 0.5–1 MΩ resistance when filled with 3 M KCl solution. […]
as §1

[3] = molecular target: T2, rASIC1a E362R (Rattus norvegicus, UniProt P55926, E362R); assay: TEVC oocytes, rASIC1a E362R mutant; format: cell-based; settings: conditioning pH 7.45, stimulating pH 6
T2 construct: expressed in transfected cells; host or cells: Xenopus laevis oocytes (cRNA injection)
T2 sequence (P55926 1-526 E362R): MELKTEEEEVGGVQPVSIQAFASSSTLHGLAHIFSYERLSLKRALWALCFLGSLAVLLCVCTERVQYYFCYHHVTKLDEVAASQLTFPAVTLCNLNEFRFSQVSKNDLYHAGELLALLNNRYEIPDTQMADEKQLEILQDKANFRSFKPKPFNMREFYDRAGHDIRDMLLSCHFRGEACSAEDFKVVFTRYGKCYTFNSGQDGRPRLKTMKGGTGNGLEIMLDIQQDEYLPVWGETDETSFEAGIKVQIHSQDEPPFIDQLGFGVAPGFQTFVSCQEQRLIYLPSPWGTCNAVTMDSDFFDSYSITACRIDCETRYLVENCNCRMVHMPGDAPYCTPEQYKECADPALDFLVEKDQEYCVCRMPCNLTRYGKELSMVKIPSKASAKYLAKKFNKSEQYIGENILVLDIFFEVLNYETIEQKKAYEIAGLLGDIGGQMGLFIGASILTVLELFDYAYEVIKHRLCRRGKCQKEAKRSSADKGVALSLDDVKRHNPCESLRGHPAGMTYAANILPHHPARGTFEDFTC
Experimental: as §2, §1

Substance | loss of potency relative to wild-type Ma-3 [1] | activity of 300 nM Ma-3 [2] | pH50 of activation in presence of Ma-3 ([1]; 100 nM Ma-3 in the pH 8 conditioning solution, Hill fit, n = 5–6) | decrease in Ma-3 activity relative to wild-type rASIC1a [3]
H-SLKCYQHGAVVTCHRDMKFCYHNIGMPFRNLKLILQGCSSSCSETENNKCCSTDRCNK (disulfide 4-20, 13-38, 42-50, 51-56 (inferred)) [K8A] | ~ 4 fold |  |  | 
H-SLKCYQHGKVVTCHRDAKFCYHNIGMPFRNLKLILQGCSSSCSETENNKCCSTDRCNK (disulfide 4-20, 13-38, 42-50, 51-56 (inferred)) [M16A] | no change |  |  | 
H-SLKCYQHGKVVTCHRDMKFCYHNIGMPFRNLKLILQGCSSSCSETENNKCCSTDRCNK (disulfide 4-20, 13-38, 42-50, 51-56 (inferred)) [Ma-3, mambalgin-3] |  | inhibited a greater proportion of current | 5.86 | ~ 5 fold
